Test results taken from patent publication US6461997B1, “Triazole sulfones having herbicidal activity” (Monsanto Technology LLC, priority 1999, dated 2002).

Key:
PANDI (fall panicum) = assay: Pre-emergence herbicidal activity, warm season; type: in vivo, Panicum dichotomiflorum; conditions: GR80 = lowest tested rate (300, 100, 30, 10 g/ha) with 80% or greater inhibition; approx. 14 days after treating; 30/21° C.
Summary of the method: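 Activity is expressed as the rate giving 80% inhibition, with 300, 100, 30 and 10 g/ha typically tested. An asterisk marks activity short of 80% at the top rate. Warm-season grasses were held at 30/21 °C; cool-season blackgrass and wild buckwheat at 18/13 °C; scoring at about 14 days.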

[1] = test system: VERPE (creeping speedwell); assay: Pre-emergence herbicidal activity, cool season; type: in vivo, Veronica persicaria; conditions: lowest tested rate with 80% or greater inhibition; rates 300, 100, 30, 10 g/ha; about 14 days
Summary of the method: (§1)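 Seeds sown in sterilised fertilised topsoil received surface-applied compound in 50:50 acetone/water, typically at 300, 100, 30 and 10 g/ha, then greenhouse-grown at 30/21° C (warm-season species) or 18/13° C (cool-season species). Percent inhibition versus untreated plants was scored at about 14 days, giving GR80; an asterisk marks activity short of 80% at the top rate.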

[2] = test system: LAMPU (purple deadnettle); assay: Pre-emergence herbicidal activity, cool season; type: in vivo, Lamium purpureum; conditions: lowest tested rate with 80% or greater inhibition; rates 300, 100, 30, 10 g/ha; about 14 days
Summary of the method: as §1

DATST (jimsonweed) = assay: Pre-plant incorporated (PPI) herbicidal activity, warm season; type: in vivo, Datura stramonium; conditions: for inhibition at 10 g/ha / inhibition at 30 g/ha / inhibition at 100 g/ha / inhibition at 300 g/ha / inhibition at 900 g/ha: Datura stramonium, read-out: Percent inhibition DATST; for inhibition at 10 g/ha / inhibition at 30 g/ha / inhibition at 100 g/ha / inhibition at 300 g/ha / inhibition at 900 g/ha / Percent inhibition DATST: PPI application; for PPI activity (GR80) DATST: pre-plant incorporated, GR80 = lowest tested rate with 80% or greater inhibition, approx. 14 days after treating, 30/21° C.
Description: (§2) In another set of tests, the pre-plant incorporated (PPI) activity of compounds of this invention was evaluated on the same species as for the pre-emergence tests described above. In the PPI tests the following procedure, designed to simulate PPI application, was used.
(§3) A pre-prepared topsoil mixture (described above) was placed in a pot and compacted to a depth of 1.0 to 1.25 cm from the top of the pot. Seeds of each of several monocotyledonous and dicotyledonous annual plant species were placed on top of the soil. A sufficient quantity of soil to cover the seeds and level fill the pot was weighed into an open container. A known amount of the test compound was dissolved or suspended in an organic solvent and applied by spraying to this cover soil. The cover soil was thoroughly mixed to distribute the test compound throughout the cover soil, and was then applied as a cover layer over the seeds. Untreated soil was used as a cover layer for control pots. After treatment the plants were placed in a greenhouse where they received 0.64 cm of overhead irrigation. All subsequent watering consisted of a light overhead mist and/or subirrigation as needed for germination and growth. Tables 9 and 10 below relate to warm season plant species which were placed after pre-emergence treatment in a greenhouse with a 30/21° C. day/night temperature regime. Tables 11 and 12 below relates to cool season plant species placed after pre-emergence treatment in a greenhouse or growth chamber with an 18/13° C. day/night temperature regime. Only the compounds of Examples 1, 6, 8, 11, 13 and 15-20 were included in PPI tests.
(§4) Approximately 14 days after planting and treating, the plants were observed and herbicidal efficacy recorded as percent inhibition by comparison with untreated plants.

[3] = test system: CHEAL (common lambsquarters); assay: as above; type: in vivo, Chenopodium album; conditions: for PPI activity (GR80) CHEAL: pre-plant incorporated, GR80 = lowest tested rate with 80% or greater inhibition, approx. 14 days after treating, 30/21° C.; for Percent inhibition CHEAL: PPI application
Description: as §2, §3, §4

[4] = test system: VERPE (creeping speedwell); assay: Pre-plant incorporated (PPI) herbicidal activity, cool season; type: in vivo, Veronica persicaria; conditions: for PPI activity GR80, VERPE: pre-plant incorporated, lowest tested rate with 80% or greater inhibition, about 14 days
Description: as §2, §3, §4

[5] = test system: AEGCY (jointed goatgrass); assay: Post-emergence herbicidal activity, cool season; type: in vivo, Aegilops cylindrica; conditions: abraded plants sprayed at 300, 100, 30 and 10 g/ha; about 14 days after treatment
Summary of the method: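 Greenhouse-grown seedlings were abraded 9–14 days after planting, then sprayed at 300, 100, 30 and 10 g/ha in acetone:water (3,100 l/ha). Grown at 18/13 °C day/night, percent inhibition versus abraded unsprayed controls was scored about 14 days after treatment and GR80 assigned.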

[6] = weed, PPI application, 100 g/ha
[7] = weed, PPI application, 300 g/ha
[8] = weed, PPI application, 900 g/ha

| Structure (SMILES) | Pre-emergence activity (GR80) PANDI (PANDI (fall panicum)) [g/ha] | Pre-emergence activity GR80, VERPE [1] | Pre-emergence activity GR80, LAMPU [2] [g/ha] | inhibition at 10 g/ha (DATST (jimsonweed); 10 g/ha) [%] | inhibition at 30 g/ha (DATST (jimsonweed); 30 g/ha) [%] | inhibition at 100 g/ha (DATST (jimsonweed); 100 g/ha) [%] | inhibition at 300 g/ha (DATST (jimsonweed); 300 g/ha) [%] | PPI activity (GR80) DATST (DATST (jimsonweed)) [g/ha] | PPI activity (GR80) CHEAL [3] [g/ha] | PPI activity GR80, VERPE [4] | Post-emergence activity GR80, AEGCY [5] | Percent inhibition DATST (DATST (jimsonweed); 10 g/ha) [%] | Percent inhibition DATST (DATST (jimsonweed); 30 g/ha) [%] | Percent inhibition DATST (DATST (jimsonweed); 100 g/ha) [%] | Percent inhibition DATST (DATST (jimsonweed); 300 g/ha) [%] | Percent inhibition DATST (DATST (jimsonweed); 900 g/ha) [%] | Percent inhibition VERPE ([4]; weed, PPI application, 10 g/ha) [%] | Percent inhibition VERPE [4, 6] [%] | Percent inhibition VERPE [4, 7] [%] | Percent inhibition VERPE [4, 8] [%] | also measured |
| --- | --- | --- | --- | --- | --- | --- | --- | --- | --- | --- | --- | --- | --- | --- | --- | --- | --- | --- | --- | --- | --- |
| CCN(CC)C(=O)n1cnc(S(=O)(=O)C(F)(F)Br)n1 [Example 1, 3-(bromodifluoromethylsulfonyl)-1-(N,N-diethylcarbamoyl)-1,2,4-triazole] | 30 | 100 g/ha | 30 | 0 | 0 | 0 | 40 | 30 | 300 | 30 g/ha | [empty] | – | – | – | – | – | – | – | – | – | inhibition at 900 g/ha (DATST (jimsonweed); 900 g/ha): 95% |
| C=C(CC(F)(F)S(=O)(=O)c1ncn(C(=O)N(CC)CC)n1)C[Si](C)(C)C [Example 20] | 300 | [empty] | 100 | – | – | – | – | 300 | 30 | 30 g/ha | [empty] | 0 | 0 | 0 | 20 | 60 | 0 | 50 | 90 | 95 | Percent inhibition VERPE ([4]; weed, PPI application, 30 g/ha): 90% |
| CCN(CC)C(=O)n1cnc(S(=O)(=O)C(F)(F)SCCOC)n1 [Example 13] | 300 | 300 g/ha | 100 | – | – | – | – | 300 | 30 | 100 g/ha | [empty] | 0 | 30 | 50 | 90 | 100 | 75 | 100 | 100 | 100 | Percent inhibition CHEAL ([3]; 10 g/ha): 30%; Percent inhibition CHEAL ([3]; 30 g/ha): 20%; Percent inhibition CHEAL ([3]; 100 g/ha): 100%; Percent inhibition CHEAL ([3]; 300 g/ha): 100%; Percent inhibition CHEAL ([3]; 900 g/ha): 100%; Percent inhibition VERPE ([4]; weed, PPI application, 30 g/ha): 100% |
| CCN(CC)C(=O)n1cnc(S(=O)(=O)C(F)(F)SCC(=O)OC)n1 [Example 11] | 300 | 100 g/ha | 100 | – | – | – | – | 100 | 100 | [empty] | [empty] | 0 | 0 | 20 | 20 | 80 | 90 | 100 | 100 | 100 | Percent inhibition CHEAL ([3]; 10 g/ha): 30%; Percent inhibition CHEAL ([3]; 30 g/ha): 60%; Percent inhibition CHEAL ([3]; 100 g/ha): 60%; Percent inhibition CHEAL ([3]; 300 g/ha): 100%; Percent inhibition CHEAL ([3]; 900 g/ha): 100%; Percent inhibition VERPE ([4]; weed, PPI application, 30 g/ha): 90% |
| CCN(CC)C(=O)n1cnc(S(=O)(=O)C(F)F)n1 [Example 15, 1-(N,N-diethylcarbamoyl)-3-(difluoromethylsulfonyl)-1,2,4-triazole] | 100 | – | – | 0 | 0 | 0 | 65 | 300 | 100 | 300 g/ha | [empty] | – | – | – | – | – | – | – | – | – | inhibition at 900 g/ha (DATST (jimsonweed); 900 g/ha): 90% |
| CCN(CC)C(=O)n1cnc(S(=O)(=O)C(F)(F)SCc2ccccc2)n1 [Example 10] | 300 | 100 g/ha | 100 | – | – | – | – | – | – | – | [empty] | 0 | 0 | 0 | 20 | 100 | 70 | 100 | 100 | 100 | Percent inhibition CHEAL ([3]; 10 g/ha): 30%; Percent inhibition CHEAL ([3]; 30 g/ha): 60%; Percent inhibition CHEAL ([3]; 100 g/ha): 60%; Percent inhibition CHEAL ([3]; 300 g/ha): 100%; Percent inhibition CHEAL ([3]; 900 g/ha): 100% |
| C=CCC(F)(F)S(=O)(=O)c1ncn(C(=O)N(CC)CC)n1 [Example 17, 1-(N,N-diethylcarbamoyl)-3-[(1,1-difluoro-3-butenyl)sulfonyl]-1,2,4-triazole] | 100 | 100 g/ha | 100 | 0 | 0 | 30 | 60 | 300 | 300 | 10 g/ha | [empty] | – | – | – | – | – | – | – | – | – | inhibition at 900 g/ha (DATST (jimsonweed); 900 g/ha): 99%; inhibition at 10 g/ha ([4]; weed, PPI application, 10 g/ha, read-out: Percent inhibition VERPE): 0%; inhibition at 30 g/ha ([4]; weed, PPI application, 30 g/ha, read-out: Percent inhibition VERPE): 0%; inhibition at 100 g/ha ([4]; weed, PPI application, 100 g/ha, read-out: Percent inhibition VERPE): 0%; inhibition at 300 g/ha ([4]; weed, PPI application, 300 g/ha, read-out: Percent inhibition VERPE): 90%; inhibition at 900 g/ha ([4]; weed, PPI application, 900 g/ha, read-out: Percent inhibition VERPE): 100% |
